Source: patent US8802597B2, “Herbicidal pyrimidines” (E I du Pont de Nemours and Company, priority 2003, dated 2014)

Tests used:
Assay in all cases: Test C pre/postemergence
Format in all cases: in vivo
[1] = tested on: woolly cupgrass (Eriochloa villosa); conditions: for Plant response rating, Cupgrass, Woolly: Preemergence
Outline: (§1)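 Seeds sown and sprayed preemergence with test compound in non-phytotoxic solvent containing surfactant; postemergence sprays, same formulation, went onto plants 2 to 18 cm tall (1- to 4-leaf stage). Plants held in greenhouse 12 to 14 days, then visually rated against untreated controls on a 0–100 scale (0 no effect, 100 complete control).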

[2] = tested on: common (oilseed) sunflower (Helianthus annuus); conditions: Preemergence, scale 0 to 100, 0 no effect, 100 complete control
Outline: as §1

[3] = tested on: johnsongrass (Sorghum halepense); conditions: for Plant response rating, Johnsongrass: Preemergence
Outline: as §1

soybean (Glycine max) = conditions: for Plant response rating, Soybean: Preemergence, scale 0 to 100, 0 no effect, 100 complete control
Outline: as §1

[4] = tested on: crabgrass (Digitaria sanguinalis); conditions: for Plant response rating, Crabgrass: Preemergence
Outline: as §1

[5] = tested on: Surinam grass (Brachiaria decumbens); conditions: for Plant response rating, Surinam Grass: Preemergence, scale 0 to 100, 0 no effect, 100 complete control
Outline: as §1

[6] = tested on: morningglory (Ipomoea coccinea); conditions: for Plant response rating, Morningglory: Preemergence
Outline: as §1

[7] = tested on: bermudagrass (Cynodon dactylon); conditions: for Plant response rating (scale of 0 to 100), Bermudagrass / Bermudagrass plant response rating: Postemergence; for Bermudagrass plant response rating: scale 0 to 100 (0 no effect, 100 complete control); for Plant response rating, Bermudagrass: Preemergence
Outline: as §1

[8] = tested on: giant foxtail (Setaria faberii); conditions: for Plant response rating, Foxtail, Giant: Preemergence
Outline: as §1

[9] = tested on: pigweed (Amaranthus retroflexus); conditions: for Plant response rating, Pigweed: Preemergence, scale 0 to 100, 0 no effect, 100 complete control
Outline: as §1

[10] = tested on: goosegrass (Eleusine indica); conditions: for Plant response rating, Goosegrass: Preemergence
Outline: as §1

kochia (Kochia scoparia) = conditions: for Plant response rating, Kochia: Preemergence
Outline: as §1

[11] = Postemergence, 125 g ai/ha, scale 0 to 100 (0 no effect, 100 complete control)
[12] = 16 g ai/ha, scale 0 to 100, 0 no effect, 100 complete control
[13] = 31 g ai/ha, scale 0 to 100, 0 no effect, 100 complete control
[14] = 62 g ai/ha, scale 0 to 100, 0 no effect, 100 complete control

Nc1nc(-c2ccc(Cl)cc2)nc(C(=O)[O-])c1Cl.[Na+] [Compound 117]
70: Plant response rating, Johnsongrass ([3]; 125 g ai/ha, scale 0 to 100) | Plant response rating (scale of 0 to 100), Foxtail, Giant ([8]; Postemergence, 62 g ai/ha)
35: Plant response rating, Johnsongrass [3, 13]
75: Plant response rating (scale of 0 to 100), Goosegrass ([10]; Postemergence, 62 g ai/ha)
0: Plant response rating, Cupgrass, Woolly [1, 12] | Plant response rating, Cupgrass, Woolly [1, 13] | Plant response rating, Sunflower ([2]; 16 g ai/ha) | Plant response rating, Johnsongrass [3, 12] | Plant response rating, Crabgrass [4, 12] | Plant response rating, Crabgrass [4, 13] | Plant response rating, Crabgrass [4, 14] | Plant response rating, Morningglory [6, 12] | Plant response rating, Morningglory [6, 13] | Plant response rating, Bermudagrass [7, 12] | Plant response rating, Bermudagrass [7, 13] | Plant response rating, Foxtail, Giant [8, 12] | Plant response rating, Foxtail, Giant [8, 13] | Plant response rating, Goosegrass [10, 12] | Plant response rating, Goosegrass [10, 13] | Plant response rating, Goosegrass [10, 14] | Plant response rating, Kochia (kochia (Kochia scoparia); [12])
85: Cupgrass, Woolly plant response rating [1, 11] | Plant response rating, Soybean (soybean (Glycine max); 16 g ai/ha) | Plant response rating (scale of 0 to 100), Crabgrass ([4]; Postemergence, 16 g ai/ha) | Bermudagrass plant response rating ([7]; 62 g ai/ha)
40: Plant response rating, Surinam Grass ([5]; 16 g ai/ha) | Plant response rating, Surinam Grass ([5]; 31 g ai/ha) | Plant response rating (scale of 0 to 100), Goosegrass ([10]; Postemergence, 16 g ai/ha) | Plant response rating (scale of 0 to 100), Goosegrass ([10]; Postemergence, 31 g ai/ha)
60: Plant response rating (scale of 0 to 100), Cupgrass, Woolly ([1]; Postemergence, 16 g ai/ha) | Plant response rating, Johnsongrass [3, 14] | Plant response rating, Crabgrass ([4]; 125 g ai/ha, scale 0 to 100) | Plant response rating (scale of 0 to 100), Bermudagrass ([7]; 16 g ai/ha) | Plant response rating, Kochia (kochia (Kochia scoparia); 125 g ai/ha, scale 0 to 100)
45: Plant response rating (scale of 0 to 100), Surinam Grass ([5]; Postemergence, 16 g ai/ha)
15: Plant response rating, Cupgrass, Woolly [1, 14]
50: Plant response rating, Cupgrass, Woolly ([1]; 125 g ai/ha, scale 0 to 100) | Plant response rating, Sunflower ([2]; 31 g ai/ha) | Plant response rating (scale of 0 to 100), Johnsongrass ([3]; Postemergence, 31 g ai/ha) | Plant response rating (scale of 0 to 100), Johnsongrass ([3]; Postemergence, 62 g ai/ha) | Johnsongrass plant response rating [3, 11] | Plant response rating (scale of 0 to 100), Surinam Grass ([5]; Postemergence, 31 g ai/ha) | Plant response rating, Surinam Grass ([5]; 62 g ai/ha) | Plant response rating (scale of 0 to 100), Morningglory ([6]; Postemergence, 31 g ai/ha) | Plant response rating (scale of 0 to 100), Morningglory ([6]; Postemergence, 62 g ai/ha) | Morningglory plant response rating [6, 11] | Plant response rating, Morningglory ([6]; 125 g ai/ha, scale 0 to 100) | Plant response rating (scale of 0 to 100), Foxtail, Giant ([8]; Postemergence, 16 g ai/ha) | Plant response rating, Foxtail, Giant ([8]; 125 g ai/ha, scale 0 to 100) | Plant response rating, Pigweed ([9]; 16 g ai/ha)
55: Plant response rating (scale of 0 to 100), Foxtail, Giant ([8]; Postemergence, 31 g ai/ha)
80: Plant response rating (scale of 0 to 100), Cupgrass, Woolly ([1]; Postemergence, 31 g ai/ha) | Plant response rating (scale of 0 to 100), Cupgrass, Woolly ([1]; Postemergence, 62 g ai/ha) | Plant response rating (scale of 0 to 100), Surinam Grass ([5]; Postemergence, 62 g ai/ha) | Surinam Grass plant response rating [5, 11] | Foxtail, Giant plant response rating [8, 11] | Plant response rating, Pigweed ([9]; 31 g ai/ha) | Goosegrass plant response rating [10, 11]
10: Plant response rating (scale of 0 to 100), Johnsongrass ([3]; Postemergence, 16 g ai/ha)
5: Plant response rating, Morningglory [6, 14] | Plant response rating, Foxtail, Giant [8, 14] | Plant response rating, Kochia (kochia (Kochia scoparia); [13])
100: Plant response rating (scale of 0 to 100), Soybean (soybean (Glycine max); Postemergence, 16 g ai/ha) | Plant response rating (scale of 0 to 100), Soybean (soybean (Glycine max); Postemergence, 31 g ai/ha) | Plant response rating (scale of 0 to 100), Soybean (soybean (Glycine max); Postemergence, 62 g ai/ha) | Soybean plant response rating (soybean (Glycine max); [11]) | Plant response rating, Soybean (soybean (Glycine max); 31 g ai/ha) | Plant response rating, Soybean (soybean (Glycine max); 62 g ai/ha)
65: Plant response rating (scale of 0 to 100), Bermudagrass ([7]; 31 g ai/ha) | Plant response rating, Bermudagrass ([7]; 125 g ai/ha, scale 0 to 100)
95: Plant response rating (scale of 0 to 100), Pigweed ([9]; Postemergence, 31 g ai/ha) | Plant response rating (scale of 0 to 100), Pigweed ([9]; Postemergence, 62 g ai/ha) | Pigweed plant response rating [9, 11]
20: Plant response rating (scale of 0 to 100), Morningglory ([6]; Postemergence, 16 g ai/ha) | Plant response rating, Kochia (kochia (Kochia scoparia); [14])
30: Plant response rating, Bermudagrass [7, 14] | Plant response rating, Goosegrass ([10]; 125 g ai/ha, scale 0 to 100)
90: Plant response rating, Sunflower ([2]; 62 g ai/ha) | Plant response rating (scale of 0 to 100), Crabgrass ([4]; Postemergence, 31 g ai/ha) | Plant response rating (scale of 0 to 100), Crabgrass ([4]; Postemergence, 62 g ai/ha) | Crabgrass plant response rating [4, 11] | Bermudagrass plant response rating ([7]; 125 g ai/ha) | Plant response rating (scale of 0 to 100), Pigweed ([9]; Postemergence, 16 g ai/ha) | Plant response rating, Pigweed ([9]; 62 g ai/ha) | Plant response rating (scale of 0 to 100), Kochia (kochia (Kochia scoparia); Postemergence, 16 g ai/ha) | Plant response rating (scale of 0 to 100), Kochia (kochia (Kochia scoparia); Postemergence, 31 g ai/ha) | Plant response rating (scale of 0 to 100), Kochia (kochia (Kochia scoparia); Postemergence, 62 g ai/ha) | Kochia plant response rating (kochia (Kochia scoparia); [11])
